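Protocol summary: plate cells (96-well), add compound at 5 concentrations, incubate 48 h, interpolate endpoints linearly. GI50 = concentration required for 50% inhibition of growth. TGI marks complete inhibition of growth.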
What was measured:
Experiment in all cases: NCI anticancer screen, dose series, 48 h
CAKI-1 renal = system: CAKI-1 renal
MDA-MB-435 = system: MDA-MB-435
SR leukemia = system: SR leukemia
MDA-MB-231 breast = system: MDA-MB-231 breast
OVCAR-3 ovarian = system: OVCAR-3 ovarian
DU-145 prostate = system: DU-145 prostate
HOP-92 NSCLC = system: HOP-92 NSCLC
OVCAR-5 ovarian = system: OVCAR-5 ovarian
SK-OV-3 ovarian = system: SK-OV-3 ovarian
UO-31 renal = system: UO-31 renal
SNB-75 CNS = system: SNB-75 CNS
PC-3 prostate = system: PC-3 prostate
COLO 205 colon = system: COLO 205 colon
UACC-257 melanoma = system: UACC-257 melanoma
ACHN renal = system: ACHN renal
A549 NSCLC = system: A549 NSCLC
M14 melanoma = system: M14 melanoma
NCI-H460 lung = system: NCI-H460 lung
K-562 leukemia = system: K-562 leukemia
HL-60(TB) leukemia = system: HL-60(TB) leukemia
HCT-116 colon = system: HCT-116 colon
MALME-3M melanoma = system: MALME-3M melanoma
NCI-H522 lung = system: NCI-H522 lung
T-47D breast = system: T-47D breast
786-0 renal = system: 786-0 renal
OVCAR-8 ovarian = system: OVCAR-8 ovarian
BT-549 breast = system: BT-549 breast
A498 renal = system: A498 renal
RXF 393 renal = system: RXF 393 renal
RPMI-8226 leukemia = system: RPMI-8226 leukemia
HCT-15 colon = system: HCT-15 colon
LOX IMVI melanoma = system: LOX IMVI melanoma
MOLT-4 leukemia = system: MOLT-4 leukemia
SK-MEL-5 melanoma = system: SK-MEL-5 melanoma
OVCAR-4 ovarian = system: OVCAR-4 ovarian
TK-10 renal = system: TK-10 renal
HCC-2998 colon = system: HCC-2998 colon
NCI-H226 lung = system: NCI-H226 lung
SW-620 colon = system: SW-620 colon
HOP-62 NSCLC = system: HOP-62 NSCLC
KM12 colon = system: KM12 colon
HT29 colon = system: HT29 colon
NCI/ADR-RES ovarian = system: NCI/ADR-RES ovarian
SN12C renal = system: SN12C renal
CCRF-CEM leukemia = system: CCRF-CEM leukemia
SK-MEL-28 melanoma = system: SK-MEL-28 melanoma
NCI-H23 lung = system: NCI-H23 lung
HS 578T breast = system: HS 578T breast
SK-MEL-2 melanoma = system: SK-MEL-2 melanoma
EKVX NSCLC = system: EKVX NSCLC
IGROV1 ovarian = system: IGROV1 ovarian
MCF7 breast = system: MCF7 breast
UACC-62 melanoma = system: UACC-62 melanoma
SF-295 CNS = system: SF-295 CNS
SF-268 CNS = system: SF-268 CNS
U251 CNS = system: U251 CNS
SF-539 CNS = system: SF-539 CNS
SNB-19 CNS = system: SNB-19 CNS

N=C(N)c1ccc(-c2ccc(-c3ccc(Cl)cc3Cl)o2)nc1
GI50 (CAKI-1 renal): 1520 nM
TGI (CAKI-1 renal): 2960 nM
GI50 (MDA-MB-435): 1720 nM
TGI (MDA-MB-435): 3100 nM
GI50 (SR leukemia): 311 nM
TGI (SR leukemia): 1430 nM
GI50 (MDA-MB-231 breast): 1640 nM
TGI (MDA-MB-231 breast): 3160 nM
GI50 (OVCAR-3 ovarian): 1810 nM
TGI (OVCAR-3 ovarian): 3230 nM
GI50 (DU-145 prostate): 1780 nM
TGI (DU-145 prostate): 3210 nM
GI50 (HOP-92 NSCLC): 1440 nM
TGI (HOP-92 NSCLC): 2900 nM
GI50 (OVCAR-5 ovarian): 1640 nM
TGI (OVCAR-5 ovarian): 3050 nM
GI50 (SK-OV-3 ovarian): 1770 nM
TGI (SK-OV-3 ovarian): 3520 nM
GI50 (UO-31 renal): 1560 nM
TGI (UO-31 renal): 2920 nM
GI50 (SNB-75 CNS): 1460 nM
TGI (SNB-75 CNS): 2780 nM

CC[C@H]1CN2CCc3cc(OC)c(OC)cc3C2C[C@@H]1CC1NCCc2cc(OC)c(OC)cc21 (stereo not given in full)
TGI (CAKI-1 renal): 292 nM
TGI (PC-3 prostate): 275 nM
TGI (COLO 205 colon): 17 nM
TGI (UACC-257 melanoma): 258 nM
GI50 (MDA-MB-435): 16.1 nM
TGI (MDA-MB-435): 112 nM
TGI (ACHN renal): 1420 nM
TGI (A549 NSCLC): 52.3 nM
TGI (M14 melanoma): 48.7 nM
TGI (NCI-H460 lung): 112 nM
GI50 (K-562 leukemia): 13.7 nM
TGI (K-562 leukemia): 77.9 nM
GI50 (HL-60(TB) leukemia): 20.4 nM
TGI (HL-60(TB) leukemia): 144 nM
TGI (HCT-116 colon): 49.1 nM
TGI (MDA-MB-231 breast): 99.4 nM
TGI (OVCAR-3 ovarian): 197 nM
TGI (MALME-3M melanoma): 222 nM
TGI (DU-145 prostate): 105 nM
GI50 (NCI-H522 lung): 12.7 nM
TGI (NCI-H522 lung): 35.4 nM
TGI (T-47D breast): 77.3 nM
TGI (786-0 renal): 128 nM
TGI (HOP-92 NSCLC): 46.4 nM
TGI (OVCAR-8 ovarian): 180 nM
TGI (OVCAR-5 ovarian): 645 nM
TGI (BT-549 breast): 375 nM
TGI (A498 renal): 313 nM
TGI (RXF 393 renal): 131 nM
TGI (RPMI-8226 leukemia): 128 nM
TGI (HCT-15 colon): 2020 nM
TGI (SK-OV-3 ovarian): 292 nM
TGI (LOX IMVI melanoma): 22.4 nM
TGI (MOLT-4 leukemia): 3750 nM
TGI (SK-MEL-5 melanoma): 92.8 nM
TGI (OVCAR-4 ovarian): 48.1 nM
TGI (TK-10 renal): 572 nM
TGI (HCC-2998 colon): 65 nM
TGI (NCI-H226 lung): 194 nM
TGI (SW-620 colon): 238 nM
TGI (HOP-62 NSCLC): 81.5 nM
TGI (KM12 colon): 98.6 nM
TGI (HT29 colon): 47.9 nM
TGI (NCI/ADR-RES ovarian): 1190 nM
TGI (SN12C renal): 289 nM
GI50 (CCRF-CEM leukemia): 18.6 nM
TGI (CCRF-CEM leukemia): 204 nM
TGI (SK-MEL-28 melanoma): 119 nM
TGI (NCI-H23 lung): 91.6 nM
TGI (HS 578T breast): 1750 nM
TGI (SK-MEL-2 melanoma): 54.2 nM
TGI (EKVX NSCLC): 136 nM
TGI (IGROV1 ovarian): 407 nM
GI50 (MCF7 breast): 14.6 nM
TGI (MCF7 breast): 1220 nM
TGI (UACC-62 melanoma): 316 nM

COc1ccc(C(=O)Nc2ncc(Cc3cccc(Cl)c3)s2)cc1OC
GI50 (CAKI-1 renal): 309 nM
TGI (CAKI-1 renal): > 100000 nM
GI50 (PC-3 prostate): 1500 nM
TGI (PC-3 prostate): > 100000 nM
GI50 (COLO 205 colon): 222 nM
TGI (COLO 205 colon): > 100000 nM
GI50 (UACC-257 melanoma): 566 nM
TGI (UACC-257 melanoma): > 100000 nM
GI50 (ACHN renal): 81.2 nM
TGI (ACHN renal): > 100000 nM
GI50 (A549 NSCLC): 631 nM
TGI (A549 NSCLC): > 100000 nM
GI50 (M14 melanoma): 37.1 nM
TGI (M14 melanoma): > 100000 nM
GI50 (NCI-H460 lung): 61.1 nM
TGI (NCI-H460 lung): > 100000 nM
TGI (K-562 leukemia): > 100000 nM
GI50 (HL-60(TB) leukemia): 325 nM
TGI (HL-60(TB) leukemia): > 71000 nM
GI50 (HCT-116 colon): 76.9 nM
TGI (HCT-116 colon): > 100000 nM
GI50 (SR leukemia): 164 nM
TGI (SR leukemia): > 100000 nM
GI50 (MDA-MB-231 breast): 1770 nM
TGI (MDA-MB-231 breast): > 100000 nM
GI50 (OVCAR-3 ovarian): 368 nM
TGI (OVCAR-3 ovarian): 9710 nM
GI50 (MALME-3M melanoma): 748 nM
TGI (MALME-3M melanoma): > 100000 nM
GI50 (DU-145 prostate): 1880 nM
TGI (DU-145 prostate): > 100000 nM
GI50 (NCI-H522 lung): 921 nM
TGI (NCI-H522 lung): > 100000 nM
GI50 (SF-295 CNS): 60.7 nM
TGI (SF-295 CNS): 3640 nM
GI50 (T-47D breast): 169 nM
TGI (T-47D breast): > 100000 nM
GI50 (786-0 renal): 1330 nM
TGI (786-0 renal): > 100000 nM
GI50 (HOP-92 NSCLC): 1990 nM
TGI (HOP-92 NSCLC): > 100000 nM
GI50 (OVCAR-8 ovarian): 1560 nM
TGI (OVCAR-8 ovarian): > 100000 nM
GI50 (OVCAR-5 ovarian): 1250 nM
TGI (OVCAR-5 ovarian): > 100000 nM
GI50 (BT-549 breast): 883 nM
TGI (BT-549 breast): > 100000 nM
GI50 (A498 renal): 211 nM
TGI (A498 renal): 1890 nM
GI50 (RXF 393 renal): 1070 nM
TGI (RXF 393 renal): 6540 nM
GI50 (RPMI-8226 leukemia): 474 nM
TGI (RPMI-8226 leukemia): 8230 nM
GI50 (HCT-15 colon): 63.1 nM
TGI (HCT-15 colon): > 100000 nM
GI50 (SK-OV-3 ovarian): 3590 nM
TGI (SK-OV-3 ovarian): > 100000 nM
GI50 (LOX IMVI melanoma): 19.7 nM
TGI (LOX IMVI melanoma): > 100000 nM
GI50 (MOLT-4 leukemia): 374 nM
TGI (MOLT-4 leukemia): > 100000 nM
GI50 (SK-MEL-5 melanoma): 247 nM
TGI (SK-MEL-5 melanoma): 11100 nM
GI50 (OVCAR-4 ovarian): 3680 nM
TGI (OVCAR-4 ovarian): > 100000 nM
GI50 (TK-10 renal): 7850 nM
TGI (TK-10 renal): > 100000 nM
GI50 (UO-31 renal): 953 nM
TGI (UO-31 renal): > 100000 nM
GI50 (HCC-2998 colon): 134 nM
TGI (HCC-2998 colon): > 44100 nM
GI50 (NCI-H226 lung): 1480 nM
TGI (NCI-H226 lung): > 100000 nM
GI50 (SW-620 colon): 56.7 nM
TGI (SW-620 colon): > 100000 nM
GI50 (SF-268 CNS): 882 nM
TGI (SF-268 CNS): > 100000 nM
GI50 (U251 CNS): 505 nM
TGI (U251 CNS): > 100000 nM
GI50 (HOP-62 NSCLC): 546 nM
TGI (HOP-62 NSCLC): > 100000 nM
GI50 (KM12 colon): 54.7 nM
TGI (KM12 colon): > 100000 nM
GI50 (HT29 colon): 148 nM
TGI (HT29 colon): > 100000 nM
GI50 (NCI/ADR-RES ovarian): 398 nM
TGI (NCI/ADR-RES ovarian): > 100000 nM
GI50 (SF-539 CNS): 312 nM
TGI (SF-539 CNS): 2500 nM
GI50 (SN12C renal): 1330 nM
TGI (SN12C renal): > 100000 nM
GI50 (SNB-19 CNS): 689 nM
TGI (SNB-19 CNS): > 100000 nM
GI50 (SNB-75 CNS): 405 nM
GI50 (CCRF-CEM leukemia): 626 nM
TGI (CCRF-CEM leukemia): > 100000 nM
GI50 (SK-MEL-28 melanoma): 119 nM
TGI (SK-MEL-28 melanoma): > 100000 nM
GI50 (NCI-H23 lung): 2510 nM
TGI (NCI-H23 lung): > 100000 nM
GI50 (HS 578T breast): 445 nM
TGI (HS 578T breast): > 100000 nM
GI50 (SK-MEL-2 melanoma): 557 nM
TGI (SK-MEL-2 melanoma): > 100000 nM
GI50 (EKVX NSCLC): 693 nM
TGI (EKVX NSCLC): > 100000 nM
GI50 (IGROV1 ovarian): 525 nM
TGI (IGROV1 ovarian): > 100000 nM
GI50 (MCF7 breast): 360 nM
TGI (MCF7 breast): > 100000 nM
GI50 (UACC-62 melanoma): 17.3 nM
TGI (UACC-62 melanoma): > 100000 nM

Source: PubChem BioAssay (NCI)
